The values that follow come from ChEMBL document CHEMBL1201862, “PubChem BioAssay data set” (2004).

A short description of assay [1]: ADAM10 inhibitors, peptide cleavage, dose response, biochemical, QFRET (AID 743254).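 Further: ADAM10 enzyme with the DM2 quenched FRET peptide as substrate; EDANS fluorescence gain as the protease cuts the substrate; inhibitor potency against ADAM10 proteolytic activity.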
Assay [2] addresses Disintegrin and metalloproteinase domain-containing protein 17 (Homo sapiens, UniProt P78536). Briefly: ADAM17 protease inhibitors, dose response, counter-screen for ADAM10 exosite inhibitor project, biochemical, quenched FRET substrate (AID 743253). A general note: A counterscreen serves to expose hits that act by an unwanted route or on another target.
For assay [3], the target named is Endoplasmic reticulum aminopeptidase 1 (Homo sapiens, UniProt Q9NZ08). Briefly: ERAP1 aminopeptidase inhibitors, dose response, biochemical, cherry-pick, set 2, plate reader (AID 743314).
The target in a further assay is Galanin receptor type 3 (Homo sapiens, UniProt O60755). Briefly: Fluorescence-based cell-based primary high throughput dose response assay to identify antagonists of the Galanin Receptor 3 (GalR3). Type of assay: functional.
Assay [4] in a line: cells. Type of assay: functional, cell-based. The settings on record: HEK-CNG.
Assay [5] can be described thus: Late stage assay provider results from the probe development effort to identify inhibitors of the Plasmodium falciparum M17 Leucine Aminopeptidase (M17LAP): radiolabel-based cell-based dose response assay to identify compounds that inhibit P. falciparum growth in RBCs Set 2. Type of assay: functional.
Assay [6] is described as follows: inhibitors of firefly luciferase expression or activity, dose response, H4 neuroglioma cells, luminescence (AID 1990). Type of assay: functional, cell-based.
The nature of assay [7]: luciferase reporter signal reduction – luminescence, H4-C neuroglioblastoma cells, dose response (AID 2458).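 Further: H4 neuroglioblastoma cells stably carrying a luciferase reporter gene fusion.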 Type of assay: functional, cell-based.
Assay [8] in a line: cells. Type of assay: functional, cell-based.
The nature of assay [9]: inhibitors of SNCA 5'UTR-driven reporter translation, confirmation, H4 neuroglioma cells, luminescence (AID 1988). Type of assay: functional, cell-based.
A short description of assay [10]: inhibitors of SNCA 5'UTR-driven translation, confirmation, luminescence, H4 neuroglioblastoma cells, dose confirmation (AID 2454).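 Further: H4 neuroglioblastoma cells carrying an alpha-synuclein 5'UTR luciferase reporter; potency for inhibition of the luciferase signal.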 Type of assay: functional, cell-based.
Assay [11] in a line: cytotoxicity in HEK-293T cells, dose response, cytotoxicity control for TCR NF-kB inhibitor project, luminescence, T-cell screen hits (AID 489026).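 Further: cells exposed to compound about 14 hours before the viability readout.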 Type of assay: functional, cell-based.
The next assay deals with P388/ADR. Briefly: cells. Type of assay: functional. Particulars: Mus musculus.
A further assay has as its system SN12K1. Briefly: cells. Particulars: Homo sapiens. Type of assay: functional.
For a further assay, the system named is P388. Briefly: cells. Type of assay: functional. The settings on record: Mus musculus.
Assay [12] in a line: CFTR ΔF508 corrector activity in bronchial cells, dose response, human bronchial epithelial cells, plate reader, cherry-pick, two tests (AID 743267). Type of assay: functional, cell-based.
The target of another assay is Paired box protein Pax-8 (Homo sapiens, UniProt Q06710). Briefly: inhibitors of PAX8-driven TPO luciferase reporter, dose response, RMG-I cells, cherry-pick (AID 687027).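 Further: luciferase reporter driven by Pax8 target thyroperoxidase promoter measured by SteadyGlo luminescence.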 Type of assay: functional, cell-based. Background: In a reporter assay the amount or activity of a reporter protein is the signal.
The nature of assay [13]: NIH:OVCAR-3 ovarian cancer cell cytotoxicity, dose response, PAX8 inhibitor project, plate reader, dry powder samples (AID 743044). Type of assay: functional, cell-based.
Assay [14] in a line: IGROV1 ovarian cancer cell cytotoxicity, dose response, PAX8 inhibitor project, plate reader, dry powder samples (AID 743043). Type of assay: functional, cell-based. Particulars: IGROV-1.
The nature of assay [15]: cytotoxicity in OVCAR8 ovarian cancer cells, dose response, PAX8 project, cell-based, plate reader, dry powder samples (AID 743197). The settings on record: OVCAR-8. Type of assay: functional.
In assay [16] the target is Fructose-bisphosphate aldolase (Mycobacterium tuberculosis, UniProt P9WQA3). Briefly: Fluorescence-based biochemical high throughput dose response assay for inhibitors of the fructose-bisphosphate aldolase (FBA) of M. tuberculosis. Type of assay: functional.
Assay [17] in a line: A2780 ovarian cancer cell cytotoxicity, dose response, cytotoxicity control, plate reader, dry powder samples (AID 743046). Type of assay: functional, cell-based.
Assay [18] is described as follows: inhibitors of CMV-promoter luciferase reporter, dose response, counter-screen for Pax8 inhibitor project, cell-based, HEK293, luminescence, dry powder (AID 743020). Type of assay: functional.
A short description of assay [19]: non-specific cell cytotoxicity, dose response, cytotoxicity control for PAX8 inhibitor project, plate reader, dry powder samples (AID 743021). Type of assay: functional, cell-based.
Assay [20] addresses Heat shock protein HSP 90-alpha (Homo sapiens, UniProt P07900). Briefly: Luminescence-based dose response biochemical high throughput screening assay for inhibitors of the Heat Shock Protein 90 (HSP90). [Related pubchem assays: 1831 (Summary AID.), 1846 (Confirmation screen.), 1789 (Primary screen.)].
A short description of assay [21]: Late stage assay provider results from the probe development effort to identify selective inhibitors of heat shock protein 90 (HSP90): Absorbance-based cell proliferation assay in SKBR3 cells. Type of assay: functional. The settings on record: SK-BR-3.
Assay [22] in a line: Late stage assay provider results from the probe development effort to identify selective inhibitors of heat shock protein 90 (HSP90): Absorbance-based cell proliferation assay in MCF7 cells. Type of assay: functional.
Assay [23] has as its target Dual specificity tyrosine-phosphorylation-regulated kinase 1A (Rattus norvegicus, UniProt Q63470). Type of assay: biochemical, Homo sapiens.
Assay [24] in a line: HepG2 cell cytotoxicity, dose response, cytotoxicity control, ATP luminescence, cherry-pick, activator set 2 (AID 1053143). Type of assay: functional, cell-based.
In a further assay the target is Major prion protein (Homo sapiens, UniProt P04156). Type of assay: functional, cell-based.
Assay [25] is described as follows: cells.

Active and inactive are the calls of the source. Some results are limits rather than exact numbers.

Consider `O=C(NCCc1nc2ccccc2[nH]1)/C(=C/c1ccc2c(c1)OCO2)NC(=O)c1ccc(Cl)cc1Cl`, for which the IC50 in [1] and in assay [2] was > 69.5 µM (inactive) each time.

With `O=C(NCC1CC1)[C@@H]1[C@@H](CO)[C@@H]2Cn3c(ccc(/C=C/c4ccccc4)c3=O)[C@H]1N2C(=O)C1CC1`, in assay [3], the AC50 (usually the midpoint of the concentration-response curve, whichever way the signal moves) is 14.7 µM (active).

Consider `O=c1c(Cl)c(NCC2CCCO2)cnn1C12CC3CC(CC(C3)C1)C2` (stereo not drawn), for which, on Galanin receptor type 3, the IC50 (commonly the concentration that inhibits the measured activity by half) was > 29.9 µM (inactive). Besides, in “cells [4]”, the EC50 (in general, the concentration needed to bring the measured effect to its halfway point) was > 29.9 µM (inactive).

Regarding `O=C(Cc1ccc(OCc2ccccc2)cc1)NO`, in [5], the IC50 was 4.7 µM (active).

Regarding `CC(=O)O[C@H]1C(=O)[C@@]2(C)[C@H]([C@H](OC(=O)c3ccccc3)[C@]3(O)C[C@H](OC(=O)[C@H](O)[C@@H](NC(=O)c4ccccc4)c4ccccc4)C(C)=C1C3(C)C)[C@]1(OC(C)=O)CO[C@@H]1C[C@@H]2O` [PACLITAXEL], the EC50 in assay [6] is 10.6 µM (active); in [7], 0.039 µM (active); in “cells [8]” it was 0.086 µM (active); in assay [9], < 0.1 µM (active); in [10], 0.069 µM (active). Also, the IC50 in assay [11] is > 80 µM (inactive). The values for the GI50 with P388/ADR, with SN12K1 and in the assay with P388 were 0.605 µM (active), 0.00327 µM (active) and 0.00569 µM (active), respectively. For the same compound, the concentration at half-maximal activity (AC50) in assay [12] is 3.59 µM (active).

As to `C[C@@H]1CN([C@@H](C)CO)C(=O)c2cc(NC(=O)Nc3ccc(C(F)(F)F)cc3)ccc2O[C@@H](C)CCCCO[C@H]1CN(C)Cc1ccncc1`, the AC50 at Paired box protein Pax-8 is 8.41 µM (active); in assay [13], 29.5 µM (active); in assay [14] it was 53.7 µM (active); in [15] it was 53.8 µM (active).

Turning to `C=CCn1c(-c2ccc(N)cc2)nc2ccccc21`, the IC50 in [16] is > 0.37 µM (active).

As to `C[C@@H]1CN([C@@H](C)CO)S(=O)(=O)c2ccc(C#CC3CCCC3)cc2O[C@H]1CN(C)Cc1cccnc1`, the AC50 at Paired box protein Pax-8 is 8.33 µM (active); in assay [17], 15 µM (active); in [18] it was 47.5 µM (active); in assay [13], 25.7 µM (active); in assay [19], 57.1 µM (active).

With `COC(=O)c1ccc2nc(NC(=O)C3CC3)sc2c1`, the IC50 was 3.82 µM (active) in assay [20], > 100 µM (inactive) in assay [21] and 49.2 µM (inactive) in assay [22].

Turning to `C=CS(=O)(=O)c1c2cc(OC)ccc2nc2ccc(OC)cc12`, the AC50 is 0.682 µM (active) in assay [23] and 25.4 µM (active) in [24].

Consider `O=C(O)c1cc(-c2cccnc2)nc2ccc(Br)cc12`, for which the figures for the IC50 at Major prion protein and in the assay “cells [25]” were 13.8 µM (inactive) and > 138 µM (inactive), respectively.
